We go through four compounds from patent US11377444B2, “Pyridopyrimidine compounds acting as mTORC 1/2 dual inhibitors” (MEDSHINE DISCOVERY INC., priority 2017, dated 2022).

Data set [1] has as its target T1, mTOR kinase (mTORC1 and mTORC2 kinase complex) (Homo sapiens, UniProt P42345).
T1 construct: purchased DiscoverX; host or cells: HEK-293
The data set is described as follows: In vitro evaluation of mTOR kinase inhibitory activity (DiscoverX ligand-bead competition binding, qPCR readout). The procedure: Experimental Embodiment 1: In Vitro Evaluation of mTOR Kinase Inhibitory Activity This experiment was performed by DiscoverX. All materials and methods were obtained from DiscoverX.
Kinase activity analysis.
1. Labeled mTOR kinase was stably expressed in HEK-293 cells.
2. Streptavidin magnetic beads were treated with biotinylated small molecule ligands at room temperature for 30 minutes to produce affinity resin for kinase analysis;
3. Ligand beads were blocked with excess biotin and washed with buffer (1% bovine serum albumin, […]) to remove unbound ligand and non-specifically bound ligand;
4. The assembly of kinase and ligand and affinity beads, and the binding reaction between the compound and the three were performed in buffer (20% blocking buffer, 0.17x phosphate buffer, 0.05% Tween […]);
5. The test compounds were dissolved in dimethyl sulfoxide;
6. All test compounds were dissolved in DMSO, and then directly diluted […]
7. The solution was placed in a 384-well polypropylene plate, wherein the volume of each well was 0.02 mL;
8. The plate was shaked for an hour at room temperature;
9. The plate was washed with buffer (1× PBS, 0.05% Tween 20);
10. The affinity beads were resuspended in buffer (1× PBS, 0.05% Tween […] non-biotin affinity ligand) and incubated at room temperature for 30 minutes;
11. The kinase concentration in the eluate was deteced by qPCR.

For another data set, the system named is MCF-7 cell. Kind of data set: Cell proliferation inhibitory activity (Cell-Titer-Glo), MCF-7. It is filed as cell-based. The settings on record: Homo sapiens, MCF7, 72 h; 3 days incubation. The text has this: (§1) Experimental Embodiment 2: Evaluation of Cell Proliferation Inhibitory Activity
(§2) Experiment objective: To detect cell proliferation inhibitory activity of the tested compounds.
(§3) Experimental principle: The luciferase in the Cell-Titer-Glo reagent produces oxyluciferin using luciferin, oxygen and ATP as reaction substrates, and releases energy in the form of light. Since the reaction of luciferase requires ATP, the total amount of light generated by the reaction is proportional to the total amount of ATP that reflects cell viability.
(§4) Cell lines: MCF-7 cell line […], HT-29 cell line (ATCC-HTB-38), OE21 (ECACC-96062201), NCI-N87 cell line (ATCC-CRL-5822)
(§5) Cell culture medium: (RPMI 1640 culture medium (Invitrogen #1868546; 10% serum Invitrogen #1804958; L-glutamine 1×, Invitrogen #1830863; dual antibiotic Hyclone #J170012))
(§6) Cell Titer-Glo® Luminescent Cell Viability Assay Kit (Promega #G7573)
(§7) The cells were inoculated in a 384- or 96-well plate with a density of 1000 cells per well and 25 μL per well according to the instructions of the cell inoculating plate. The edge wells were not inoculated with cells, and was supplemented with […].
(§8) (i) The mother solution of the compound was 10 mM, and diluted with DMSO to an initial concentration of 4 mM. The compound was added to the compound mother solution, 9 μL per well.
(§9) (ii) The compound was diluted with ECHO liquid-handling workstation. Each well of the cell plate was added with 125 nL compound. Each well of the cell wells in 2nd column and 23rd column was added with 125 nL DMSO, and each of the PBS wells in 1st column and 24th column was added with 125 nL DMSO.
(§10) (iii) Each well of the cell plate was supplemented with 25 μL culture medium, the final volume in each well of the cell plate was 50 μL, […] 3 times dilution, 10 concentrations, each concentration was duplicated in left and right wells, the final DMSO concentration was 0.25%.
(§11) 2.3. After addition of the compound, centrifugation was performed at 1000 rpm for 1 min, and the cell plate was placed in a 37° C., 5% CO2 incubator for 3 days.
(§12) The cell plate was taken out from the incubator and equilibrated at room temperature for 30 minutes. 25 μL Cell-Titer-Glo reagent was added to each well, shaken for one minute to mix thoroughly, centrifuged at 1000 rpm for 1 minute. After 10 minutes, the plate was read on PerkinElmer Envision with a […] reading time was set at 0.2 second.

A further data set deals with HT-29 cell. Kind of data set: Cell proliferation inhibitory activity (Cell-Titer-Glo), HT-29. It is filed as cell-based. The settings on record: Homo sapiens, HT-29, 72 h, 3 days incubation.
Excerpt: as §1, §2, §3, §4, §5, §6, §7, §8, §9, §10, §11, §12

The test system of another data set is OE21 cell. The data set is described as follows: Cell proliferation inhibitory activity (Cell-Titer-Glo), OE21. Format: cell-based. The settings on record: OE21, 72 h; 3 days incubation.
Excerpt: as §1, §2, §3, §4, §5, §6, §7, §8, §9, §10, §11, §12

Another data set concerns N87 cell. The data set is described as follows: Cell proliferation inhibitory activity (Cell-Titer-Glo), N87. The settings on record: 72 h; 3 days incubation. Format: cell-based.
Excerpt: as §1, §2, §3, §4, §5, §6, §7, §8, §9, §10, §11, §12

Data set [2] in a line: Pharmacokinetic evaluation in plasma after IV and PO administration. The settings on record: female Balb/c mice; for AUC(0-inf) / AUC(0-t) / C0 / clearance / half-life / MRT inf / MRT last / Vd / Cmax / Tmax / bioavailability: mouse; for MRT inf: read-out: MRT0-inf; for MRT last: read-out: MRT0-last; for Vd: read-out: Vdss. It is filed as in vivo. The procedure:
Experimental Embodiment 3: Pharmacokinetic Evaluation
The test compound was mixed with […] (Cremophor EL), vortexed and sonicated to prepare a 1 mg/mL near-clear solution, which was filtered with a microporous filter membrane for future use. Female Balb/c mice of 18 to 20 grams were selected and the solution of the test compound was administered intravenously at a dose of 1 or 2 mg/kg. The test compound was mixed with an aqueous solution of 1% Tween 80, 9% polyethylene glycol 400, and 90% water, vortexed and sonicated to prepare 1 mg/mL near-clear solution, which was filtered with a microporous filter membrane for future use.
Female Balb/c mice of 18 to 20 grams were selected, and the solution of the test compound was orally administered at a dose of 2 or 10 mg/kg. The whole blood was collected at a certain time, and prepared into plasma. The drug concentration was analyzed by LC-MS/MS, and the pharmacokinetic parameters were calculated using Phoenix WinNonlin software (Pharsight Corporation, USA).

The subject of data set [3] is human breast cancer MCF-7 cell subcutaneous xenograft tumor. Kind of data set: In vivo pharmacodynamic study, MCF-7 subcutaneous xenograft tumor. Details: species or system BALB/c nude mouse. The settings on record: 15 mg/kg. An excerpt:
Experimental Embodiment 4: In Vivo Pharmacodynamic Study on BALB/c Nude Mouse Model of Human Breast Cancer MCF-7 Cell Subcutaneous Xenograft Tumor
Experimental objective: To study the efficacy of the test compounds on human breast cancer MCF-7 cell subcutaneous xenograft tumor in BALB/c nude mouse model.
Experimental animals: Female BALB/c nude mice, 6-8 weeks old, weighing 18-22 grams; supplier: Shanghai Xipuer-Bikai Experimental Animal Co., Ltd.
Human breast cancer MCF-7 cells (ECACC, article number: 86012803) were subjected to in vitro monolayer culture under the conditions of EMEM (EBSS)+2 mM […]+1% Non Essential Amino Acids (NEAA) medium containing 10% fetal bovine serum, 100 U/mL penicillin and 100 μg/mL streptomycin, and 37° C., 5% CO2incubator. Conventional digestion treatment was carried out with trypsin-EDTA twice a week for cell passage. When the cell saturation was 80%-90%, and the quantity reached the requirement, the cells were collected, counted and inoculated.
Estrogen tablets (0.18 mg) were inoculated into the left back of each mouse three days before cell inoculation, 0.2 mL (1×10^7) MCF-7 cells (added with matrigel, volume ratio of 1:1) were subcutaneously inoculated into the right back of each mouse. When the average volume of tumor reached 142 mm^3, the mice were divided into groups and began to be administrated.
The test compounds were prepared into clear solutions of 0.75 mg/mL, 1.5 mg/mL and 3 mg/mL. The vehicles were 5% DMSO+30% polyethylene glycol 300+65% water.
The experimental indexes were used for investigating whether the growth of the tumors had been inhibited, delayed or cured. The diameters of the tumors were measured with vernier calipers twice a week. The calculation formula of the tumor volume was: V=0.5a×b^2, wherein a and b represent the long and short diameters of the tumor respectively.
The antitumor efficacy of the compound was evaluated by TGI (%) or relative tumor proliferation rate T/C (%). TGI (%) reflects the inhibition rate of the tumor growth. Calculation of TGI (%): TGI (%)=[1−(average tumor volume at the end of administration in the treatment group−average tumor volume at the beginning of administration in the treatment group)/(average tumor volume at the end of treatment in the vehicle control group−average tumor volume at the beginning of treatment in the vehicle control group)]×[…].
Relative tumor proliferation rate T/C (%): The calculation formula was as follows: T/C %=TRTV/CRTV at the beginning of the treatment (TRTV: treatment group RTV; CRTV: negative control group RTV). The relative tumor volume (RTV) was calculated according to the results of tumor measurement. The calculation formula was RTV=Vt/V0, wherein V0 is the average tumor volume measured during administration of the groups (i.e. d0), and Vt is the average tumor volume during a certain measurement, the TRTV and CRTV were taken on the same day.
Statistical analysis included the mean and standard error (SEM) of tumor volume at each time point in each group. […] The comparison between two groups was analyzed by T-test, and the comparison between three or more groups was analyzed by one-way ANOVA.

Molecules are shown by their SMILES. Where two headings read alike, the source gives them in different places.

In data set [1], `CNC(=O)c1cccc(-c2ccc3c(N4CCOC[C@@H]4C)nc(N4CCOC5(CC5)C4)nc3n2)c1` [Embodiment 1] displayed a Kd of 0.85 nM. The same compound came in with an IC50 with MCF-7 cell of 155 nM. The same compound had an IC50 in the data set on HT-29 cell of 485 nM. Moreover, in the data set on OE21 cell, half-maximal inhibition (IC50) required 313 nM. In the data set with N87 cell, this compound showed an IC50 of 61 nM. In data set [2] (IV 2 mg/kg), this compound came in with an AUCExtra of 0.124%, an AUMCExtra of 1.27%, a Tlast of 12 h and an AUC(0-inf) of 7.42 µM·h. In data set [2] (IV 2 mg/kg), this compound gave an AUC(0-t) of 7.41 µM·h, a C0 of 7.2 µM, a clearance of 9.45 mL/min/kg and a half-life of 1.65 h. In data set [2] (IV 2 mg/kg), the MRT inf came to 1.38 h, the MRT last amounted to 1.2 h and the Vd was found to be 0.793 L/kg. In data set [2] (PO 10 mg/kg), this compound registered an AUCExtra of 0.174%, an AUMCExtra of 1.83%, a Tlast of 24.0 h and an AUC(0-inf) of 35 µM·h. Moreover, in data set [2] (PO 10 mg/kg), the AUC(0-t) came to 35 µM·h, the Cmax came to 15.1 µM, the Tmax was 0.25 h and the bioavailability worked out at 94.4%. In addition, in data set [2] (PO 10 mg/kg), the half-life is 3.33 h, the MRT inf was determined as 2.74 h and the MRT last is 2.69 h.
For the compound `CNC(=O)c1cccc(-c2ccc3c(N4CCOC[C@@H]4C)nc(N4CC5(CCC5)OC[C@@H]4C)nc3n2)c1` [Embodiment 30], in data set [1], binding was characterised by a dissociation constant (Kd) of 0.44 nM. Further, the IC50 was 442 nM in the data set on HT-29 cell and 158 nM with OE21 cell.
In the case of `C[C@H]1COC2(CCC2)CN1c1nc(N2CCOC[C@@H]2C)c2ccc(-c3cccc(C(N)=O)c3)nc2n1` [Embodiment 35], binding in data set [1] was characterised by a dissociation constant (Kd) of 0.4 nM. In the data set with MCF-7 cell, this compound gave an IC50 of 105 nM. The IC50 in the data set on N87 cell worked out at 44 nM. In data set [2] (IV 1 mg/kg), this compound came in with an AUCExtra of 0.246%, an AUMCExtra of 1.59%, a Tlast of 12.0 h and an AUC(0-inf) of 7.4 µM·h. In data set [2] (IV 1 mg/kg), this compound gave an AUC(0-t) of 7.38 µM·h, a C0 of 2.49 µM, a clearance of 5.07 mL/min/kg and a half-life of 1.38 h. In addition, in data set [2] (IV 1 mg/kg), the MRT inf was determined as 2.16 h, the MRT last came out at 2.13 h and the Vd was found to be 0.657 L/kg. In data set [2] (PO 2 mg/kg), this compound showed an AUCExtra of 1.84%, an AUMCExtra of 8.59%, a Tlast of 8.00 h and an AUC(0-inf) of 8.75 µM·h. In addition, in data set [2] (PO 2 mg/kg), the AUC(0-t) is 8.59 µM·h, the Cmax was 3.49 µM, the Tmax came to 0.25 h and the bioavailability was 56.1%. Further, in data set [2] (PO 2 mg/kg), the half-life is 1.33 h, the MRT inf came to 2.13 h and the MRT last was 1.98 h.
With `C[C@H]1COCCN1c1nc(N2CCOC3(CCC3)C2)nc2nc(-c3cccc(C(N)=O)c3)ccc12` [Embodiment 44], in data set [1], the affinity, expressed as Kd, was 0.24 nM. In addition, the IC50 in the data set with MCF-7 cell worked out at 171 nM; in the data set on N87 cell, 89 nM. This compound had a T/C in data set [3] of 50.58%. In data set [3], this compound returned a TGI of 65.23%. Further, the “RTV (27th day)” value in data set [3] (27th day) stood at 2.11 ± 0.39. The “Tumor volume (27th day)” value in data set [3] (27th day, mean ± SEM) came to 298 ± 55 mm^3. Further, in data set [3] (day 0, mean ± SEM), the “Tumor volume (day 0)” value was determined as 143 ± 13 mm^3.
